Measured values reported in PMC6920806, “Synthesis of β-D-galactopyranoside-Presenting Glycoclusters, Investigation of Their Interactions with Pseudomonas aeruginosa Lectin A (PA-IL) and Evaluation of Their Anti-Adhesion Potential” (Biomolecules, 2019).
“Also recorded” adds a separate entry of the source.

Assays:
lectin PA-IL = biological target: T1, lectin PA-IL (Pseudomonas aeruginosa, UniProt Q05097); test: Analytical ultracentrifugation (sedimentation velocity), cross-linking of lectin; conditions: for cross-linking of PA-IL (formation of the 6.4 S particle): protein:ligand ratios 1:0.1, 1:1, 1:10; for level of cross-linking (6.4 S octameric species): 1:0.1 protein to ligand ratio, 22 µM PA-IL
T1 construct: made in house; host or cells: Escherichia coli BL21(DE3)
Experimental: Analytical ultracentrifugation experiments were performed using ProteomeLab XL-I analytical ultracentrifuge (Beckman Coulter, Indianapolis, IN, USA) equipped with an An-60 Ti rotor. Sedimentation velocity experiments were conducted in titanium double-sector centerpiece cells (Nanolytics Instruments, Potsdam, Germany) loaded with 390 µL of both protein sample and reference solution (PBS buffer, pH = 7.5). PA-IL without the added ligand and PA-IL samples pre-incubated with different concentrations of galactosylated dendrimers 4, 7, 10 and 13 and D-galactose (protein:ligand ratios of 1:0.1, 1:1 and 1:10) were analyzed by the sedimentation velocity experiment. All the measurements were performed in PBS buffer with 22 µM PA-IL. Data were collected using absorbance optics at 25 °C at a rotor speed of 48,000 rpm. Scans were collected at 280 nm (or alternatively at 294 nm to decrease the absorbance signal of the samples containing excess of the UV-absorbing ligands 4 and 10) at 5-min intervals and 0.003 cm spatial resolution in continuous scan mode. The partial specific volume of the protein and the solvent density and viscosity were calculated from the amino acid sequence and buffer composition, respectively, using the software Sednterp (http://bitcwiki.sr.unh.edu). The data were analyzed with the continuous c(s) distribution model implemented in the program Sedfit 15.01b. For the regularization procedure, a confidence level of 0.95 was used. The plots of c(s) distributions were created in GUSSI 1.3.1 [28].

[1] = system: adhesion of P. aeruginosa (ST 1763) to epithelial bronchial cells (CuFi-1); test: Ex vivo bacterial adherence assay: inhibition of P. aeruginosa adhesion to epithelial cells; assay type: cell-based, Pseudomonas aeruginosa; conditions: for inhibitory effect on bacterial adhesion compared to the control / bacterial adhesion compared to the untreated control: 2 h incubation; for bacterial adhesion compared to the untreated control: highest concentration (2 mM); for concentrations with significant protecting (anti-adhesion) effect: p < 0.05, Dunnett test
Experimental: Epithelial CuFi-1 cells (an immortalized epithelial cell line derived from cystic fibrosis human lungs, ATCC, Kielpin, Poland) were labelled with PKH67 (Fluorescent Cell Linker Kit, Sigma-Aldrich, St. Louis, MO, USA), a green fluorescent membrane marker, as follows. An aliquot of cell suspension containing 7 × 10^6 cells was washed with PBS buffer and centrifuged (100× g for 5 min). The cell pellet was resuspended in 250 µL of Diluent C (Fluorescent Cell Linker Kit, Sigma-Aldrich, St. Louis, MO, USA). Immediately, an equal volume of 8 µM PKH67 in Diluent C (2 µL of PKH67 in 248 µL of Diluent C) was added to the cell suspension. After 5 min incubation at room temperature with periodic mixing, the staining reaction was stopped by adding an equal volume of 1% Fetal Bovine Serum (FBS, Gibco^TM Invitrogen, Paisley, UK) in PBS. After 1 min incubation with FBS, the suspension was centrifuged (100× g for 10 min). Finally, the cells were washed three times with Bronchial Epithelial Cell Growth Basal Medium (Lonza, Basel, Switzerland), followed by centrifugation (100× g for 5 min).
Pseudomonas aeruginosa strain 1763 (University Hospital Motol, Prague, Czech Republic) was stained with PKH26 (Fluorescent Cell Linker Kit, Sigma-Aldrich, St. Louis, MO, USA), a red fluorescent membrane marker. Bacteria were grown in a suspension culture in PS medium (peptone/casein digest) in an Erlenmeyer flask for 14 h. The culture was washed with PBS buffer and centrifuged (13,400× g for 5 min). The pellet containing 1.5 × 10^9 bacteria was resuspended in 125 µL of Diluent C (Fluorescent Cell Linker Kit, Sigma-Aldrich, St. Louis, MO, USA) and an equal volume of 16 µM PKH26 in Diluent C (2 µL of PKH26 in 123 µL of Diluent C) was added to the bacterial suspension. The bacteria/dye suspension was incubated for 30 min at room temperature with periodic mixing. The staining was quenched by adding an equal volume of 1% BSA (Bovine Serum Albumin, Merck, Kenilworth, NJ, USA) in PBS. The suspension was incubated with BSA for 1 min to allow the binding of excess dye and then centrifuged (15,700× g for 10 min). Bacteria were washed two times with PBS, followed by centrifugation (13,400× g for 7.5 and 5 min).
Epithelial cells CuFi-1 stained with PKH67 were seeded at 8.4 × 10^4 cells/well onto 96-well plates (CellBIND® 96-well Flat Clear Bottom Black Polystyrene Microplates, Corning Incorporated, Corning, NY, USA) and incubated for 42–45 h at 37 °C, 5% CO2 to form a confluent monolayer and regenerate. Prior to the assay, wells were washed with PBS. Compounds 4, 7, 10 and 13 were serially diluted with PBS to the desired concentrations. PKH26-stained bacteria P. aeruginosa were added to the diluted inhibitor solutions. Bacterial suspensions were immediately added to the wells (50 µL/well). The input ratio was about 100 bacteria per epithelial cell (8.4 × 10^6 bacteria/well). A suspension without any inhibitor was used as a control. After 2 h incubation at room temperature, the wells were extensively washed three times with PBS to remove non-adhered bacteria. The fluorescence of adhered P. aeruginosa cells (Ex 522 nm, Em 569 nm for PKH26) on epithelial cells (Ex 470 nm, Em 505 for PKH67) was quantified using the spectrofluorometer Tecan Infinite M200 Pro (Tecan Group Ltd., Männedorf, Switzerland). Results were expressed as a relative fluorescence ratio of P. aeruginosa/CuFi-1. Three independent incubations were performed.

[2] = system: adhesion of P. aeruginosa (ST 1763) to epithelial bronchial cells (CuFi-1); test: Ex vivo bacterial adherence assay, combination with compound 14; assay type: cell-based, Pseudomonas aeruginosa; conditions: 2 mM of the compound with compound 14 (250 μM); relative to untreated control
Experimental: Epithelial CuFi-1 cells (an immortalized epithelial cell line derived from cystic fibrosis human lungs, ATCC, Kielpin, Poland) were labelled with PKH67 (Fluorescent Cell Linker Kit, Sigma-Aldrich, St. Louis, MO, USA), a green fluorescent membrane marker, as follows. An aliquot of cell suspension containing 7 × 10^6 cells was washed with PBS buffer and centrifuged (100× g for 5 min). The cell pellet was resuspended in 250 µL of Diluent C (Fluorescent Cell Linker Kit, Sigma-Aldrich, St. Louis, MO, USA). Immediately, an equal volume of 8 µM PKH67 in Diluent C (2 µL of PKH67 in 248 µL of Diluent C) was added to the cell suspension. […]
Epithelial cells CuFi-1 stained with PKH67 were seeded at 8.4 × 10^4 cells/well onto 96-well plates (CellBIND® 96-well Flat Clear Bottom Black Polystyrene Microplates, Corning Incorporated, Corning, NY, USA) and incubated for 42–45 h at 37 °C, 5% CO2 to form a confluent monolayer and regenerate. […] The fluorescence of adhered P. aeruginosa cells (Ex 522 nm, Em 569 nm for PKH26) on epithelial cells (Ex 470 nm, Em 505 for PKH67) was quantified using the spectrofluorometer Tecan Infinite M200 Pro (Tecan Group Ltd., Männedorf, Switzerland). Results were expressed as a relative fluorescence ratio of P. aeruginosa/CuFi-1. […]

T1 sequence (Q05097 2-122): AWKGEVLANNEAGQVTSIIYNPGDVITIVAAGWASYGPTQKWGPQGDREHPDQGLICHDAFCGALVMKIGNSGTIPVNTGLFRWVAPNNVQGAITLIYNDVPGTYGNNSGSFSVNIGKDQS

Row | SMILES | cross-linking of PA-IL (formation of the 6.4 S particle) (lectin PA-IL) | inhibitory effect on bacterial adhesion compared to the control [1] | level of cross-linking (6.4 S octameric species) (lectin PA-IL) | P. aeruginosa adhesion, mixture with compound 14 [2] | lower concentrations resulting in statistically significantly increased fluorescent signal (adhered bacteria) [1] [µM] | bacterial adhesion compared to the untreated control [1] | concentrations with significant protecting (anti-adhesion) effect [1] [mM]
1 | COC(=O)c1cc(OCc2cn(CCOCCOCCOCCn3cc(CO[C@@H]4O[C@H](CO)[C@H](O)[C@H](O)[C@H]4O)nn3)nn2)c(OCc2cn(CCOCCOCCOCCn3cc(CO[C@@H]4O[C@H](CO)[C@H](O)[C@H](O)[C@H]4O)nn3)nn2)c(OCc2cn(CCOCCOCCOCCn3cc(CO[C@@H]4O[C@H](CO)[C@H](O)[C@H](O)[C@H]4O)nn3)nn2)c1 [Compound 4] | did not form intermolecular cross-links | no inhibitory effect; also recorded: no visible protective effect | – | – | – | – | –
2 | OC[C@H]1O[C@@H](OCc2cn(CCOCCOCCOCCn3cc(COCC(COCc4cn(CCOCCOCCOCCn5cc(CO[C@@H]6O[C@H](CO)[C@H](O)[C@H](O)[C@H]6O)nn5)nn4)(COCc4cn(CCOCCOCCOCCn5cc(CO[C@@H]6O[C@H](CO)[C@H](O)[C@H](O)[C@H]6O)nn5)nn4)COCc4cn(CCOCCOCCOCCn5cc(CO[C@@H]6O[C@H](CO)[C@H](O)[C@H](O)[C@H]6O)nn5)nn4)nn3)nn2)[C@H](O)[C@@H](O)[C@H]1O [Compound 7] | induced the formation of the 6.4 S particle | no inhibitory effect; also recorded: no visible protective effect | ~ 30% | – | – | – | –
3 | OC[C@H]1O[C@@H](OCc2cn(CCn3cc(COCC(COCc4cn(CCn5cc(CO[C@@H]6O[C@H](CO)[C@H](O)[C@H](O)[C@H]6O)nn5)nn4)(COCc4cn(CCn5cc(CO[C@@H]6O[C@H](CO)[C@H](O)[C@H](O)[C@H]6O)nn5)nn4)COCc4cn(CCn5cc(CO[C@@H]6O[C@H](CO)[C@H](O)[C@H](O)[C@H]6O)nn5)nn4)nn3)nn2)[C@H](O)[C@@H](O)[C@H]1O [Compound 13] | induced the formation of the 6.4 S particle | – | ~ 15% | ~23% | ≤ 125 | ~42% | ≥ 1
4 | COC(=O)c1cc(OCc2cn(CCn3cc(CO[C@@H]4O[C@H](CO)[C@H](O)[C@H](O)[C@H]4O)nn3)nn2)c(OCc2cn(CCn3cc(CO[C@@H]4O[C@H](CO)[C@H](O)[C@H](O)[C@H]4O)nn3)nn2)c(OCc2cn(CCn3cc(CO[C@@H]4O[C@H](CO)[C@H](O)[C@H](O)[C@H]4O)nn3)nn2)c1 [Compound 10] | induced the formation of the 6.4 S particle | – | ~ 15% | approximately 22% | ≤ 125 | approximately 32% | ≥ 1
